Laboratory results reported in patent publication EP4714468A1, “METHOD FOR ADMINISTERING MODULATOR TARGETING S1PR1 AND S1PR4” (priority 2023, dated 2024).
Like-named read-outs stand apart in the source and are kept apart here.

Columns and labels:
[1] = Phase 1 clinical trial, single ascending dose (SAD): safety and tolerability; parameters: species or system healthy adult males; conditions: in vivo
Method: (§1) A randomized, double-blind, placebo-controlled, step-escalation, single- and multiple-dose phase 1 clinical trial was conducted to evaluate the safety, tolerability, and pharmacokinetic/pharmacodynamic characteristics of a compound of Chemical Formula 1 (NXC736) after oral administration to healthy adult males.
The clinical trial drug product is a white, round, film-coated tablet (1 mg, 3 mg tablet) or a yellow, round, film-coated tablet (10, 20 mg, 40 mg, 60 mg, 80 mg tablet) containing the active ingredient (main ingredient) NXC736 and excipients such as diluents, binders, disintegrants, fluidizing agents and glidants. The NXC736 clinical trial drug product was manufactured as an 84 mg film-coated tablet containing 1 mg or 3 mg of the main ingredient, or a 334 mg film-coated tablet containing 10 mg, 20 mg, 40 mg, 60 mg or 80 mg of the main ingredient, and it can be stored at room temperature (1 to 30°C) in an airtight container.
In this clinical trial, a total of 42 subjects were randomly assigned to a single-administration, and a total of 39 subjects completed the study according to the clinical trial protocol. A total of 33 subjects were assigned to a repeated-administration trial, and a total of 32 subjects completed the study according to the clinical trial protocol.
(§2) The subjects were administered a single oral dose of the clinical trial drug on an empty stomach at around 9:00 AM on the day of administration after fasting for at least 10 hours. In the single-administration trial, the subjects were administered the drug and hospitalized for 8 days. After discharge, they were observed through outpatient visits until day 21. Blood was collected once before administration and at regular intervals after administration, and hematological tests were performed.

[2] = Phase 1 clinical trial, single administration: pharmacokinetics; format: in vivo, healthy adult males
Method: as §1, §2

[3] = Phase 1 clinical trial, repeated administration: pharmacokinetics; format: in vivo, healthy adult males
Method: as §1
(§3) The subjects fasted for at least 10 hours before the first administration. Afterwards, the clinical trial drug was administered orally twice a day for 13 days and once on day 14 in a fasting state at around 9:00 AM and 9:00 PM. The administration was performed twice a day for approximately 14 days, and the subjects were discharged on day 21 from the first administration and observed through outpatient visits until day 36. Blood was collected once before administration and at regular intervals after administration, and hematological tests were performed.

[4] = test system: absolute lymphocyte count (ALC); assay: Phase 1 clinical trial, single administration: pharmacodynamics by hematological test; format: in vivo, healthy adult males
Method: as §1, §2

[5] = test system: absolute lymphocyte count (ALC); assay: Phase 1 clinical trial, repeated administration: pharmacodynamics by hematological test; format: in vivo, healthy adult males
Method: as §1, §3

[6] = test system: lymphocytes in the peripheral blood stream; assay: Absolute lymphocyte count suppression in healthy rats; format: in vivo, SD rats
[7] = test system: alopecia areata lesion area; assay: C3H/HeJ alopecia areata mouse model; format: in vivo, C3H/HeJ mice; conditions: 3 mg/kg or 10 mg/kg oral twice a day, 12 weeks
Method: The efficacy of NXC736 on alopecia areata was evaluated by using the alopecia areata mouse model C3H/HeJ (Jackson Lab, Saeron Bio).
C3H/HeJ mice, 10 to 16 weeks of age, in which alopecia areata was not induced, were divided into two groups: a control group (sterile distilled water administration group) and an NXC736 administration experimental group, and 5 mice per group were randomly assigned. After the lymph node cells were proliferated and injected into the C3H/HeJ mice, the NXC736 administration experimental group was orally administered with 3 mg/kg or 10 mg/kg of NXC736, and the control group was orally administered with the same volume of sterile distilled water twice a day at the same time for 12 weeks. The alopecia areata lesion area and disease free ratio were measured at two-week intervals. The animal breeding room was maintained at a temperature of 23±3°C, a relative humidity of 50±10%, and a 12-hour light and dark cycle, and the experimental animals were bred in isolation boxes (ThreeShine) and were given experimental animal feed and water ad libitum.
After 12 weeks, the circular alopecia lesion area was photographed and quantified by using the Image J program (Version 1.44p).

[8] = in vivo
[9] = test system: Sphingosine-1 Phosphate (S1P) receptor; conditions: background art statement; cited from earlier work
[10] = test system: lymphocyte-mediated diseases; conditions: alopecia areata, inflammatory bowel disease, interstitial fibrosis and tubular atrophy, focal segmental glomerulosclerosis; Korean patents; cited from earlier work
T lymphocytes = conditions: through the suppression of T lymphocytes; cited from earlier work

CCCCCCCCCCn1cc(CCC(N)(CO)CO)nn1 [NXC736]
adverse reactions (ADR) assessed as having a causal relationship with the investigational drug [1]: 12
adverse reactions (number of events) [1]: 23
decrease in heart rate after administration [1]: observed in most subjects administered NXC736
difference in frequency of adverse reactions between dose groups [1]: no significant difference in the frequency of adverse reactions between the dose groups
serious adverse reactions [1]: No serious adverse reactions were observed
severity and outcome of adverse reactions [1]: Most adverse reactions were mild and all recovered during the trial period
subjects with adverse reactions [1]: 9
elimination in urine [2]: hardly eliminated in urine
half-life ([2]; human, in vivo, po, read-out: average elimination half-life (converted)): ~10 h
Tmax ([2]; human, plasma, po, read-out: time to reach peak plasma concentrations): ~1 h
accumulation at steady state compared to the first administration ([3]; repeated administration): approximately twice
dose proportionality of Cmax,ss and AUCtau,ss ([3]; repeated administrations): confirmed
change in ALC ([4]; single administration 1 mg): 16%
change in ALC ([4]; single administration 3 mg): 27%
change in ALC ([4]; single administration 10 mg): 27%
change in ALC ([4]; single administration 20 mg): 25%
absolute lymphocyte count after administration compared to before administration ([4]; single administration 40 mg): about 68%
absolute lymphocyte count after administration compared to before administration ([4]; single administration 80 mg): about 54%
change in ALC ([5]; 20 mg twice daily, 14-day repeated administration): ≤ 30%
ALC reduction effect ([5]; 40 mg to 80 mg, repeated administrations twice a day): ≥ 50%
absolute lymphocyte count decrease ([5]; 60 mg twice-daily administration group or higher, 14 days): up to 70%
absolute lymphocyte count after administration compared to before administration ([5]; repeated administrations 40 mg): about 43%
absolute lymphocyte count after administration compared to before administration ([5]; repeated administrations 60 mg): about 32%
absolute lymphocyte count after administration compared to before administration ([5]; repeated administrations 80 mg): about 36%
lymphocytes suppressed by ([6]; 5 mg/kg oral twice a day, 4 hours after the first administration): up to 78%
lymphocytes suppressed by ([6]; 5 mg/kg oral twice a day, 4 hours after the second administration (16 hours after the first)): approximately 90%
lymphocytes recovered to ([6]; 5 mg/kg oral twice a day, 24 hours): approximately 50%
lymphocytes suppressed by ([6]; 10 mg/kg oral twice a day, 4 hours after the first administration): up to 83%
lymphocytes suppressed by ([6]; 10 mg/kg oral twice a day, 4 hours after the second administration (16 hours after the first)): up to 94%
lymphocyte suppression effect maintained ([6]; 10 mg/kg oral twice a day, up to 24 hours): about 80%
lymphocyte suppression effect maintained ([6]; 10 mg/kg oral twice a day, up to 36 hours): about 70%
lymphocytes suppressed by ([6]; 20 mg/kg oral once a day, 12 hours): up to 92%
lymphocytes recovered to ([6]; 20 mg/kg oral once a day, 24 hours): 60%
lymphocytes recovered to ([6]; 20 mg/kg oral once a day, 48 hours): 100%
lymphocyte suppression effect, twice a day vs once a day ([6]; 5 or 10 mg/kg BID vs 20 mg/kg QD): superior when administered twice a day even at a lower dose compared to when administered once a day
circular alopecia lesion area compared to control group [7]: effectively reduced
dose dependence of therapeutic effect on alopecia lesion area [7]: concentration-dependent therapeutic effect was observed
serious adverse reactions [8]: No serious adverse reactions were observed
binding selectivity among S1P receptor subtypes [9]: selectively binds to S1P1 and S1P4
treatment of lymphocyte-mediated diseases in animal experiments [10]: effectively treat

C=CC(=O)N1C[C@H](Nc2ncnc3[nH]ccc23)CC[C@@H]1C [Ritlecitinib]
therapeutic effect on alopecia areata (T lymphocytes): show a therapeutic effect on alopecia areata
